Assay results reported in patent publication US20030224522A1, “Methods for delivering nucleic acid molecules into cells and assessment thereof” (priority 2002, published 2003).

What was measured:
CHO-KI cells = test: Ultrasound mediated transfection of GFP chromosomes with Saint-2; type: cell-based
Procedure: CHO-KI cells were grown at 37°, 5% CO2, in CHO-S-SFM 2 Medium, (Gibco BRL, Paisley, UK). Between 2×10^5 and 5×10^5 cells were plated onto sterile glass slides in a 12 well plate 24 h before usage.
Transfection of the cells was performed as follows. The medium was removed from the cells, and the cells were washed twice with HBSS (Hanks balanced salt solution without Phenol Red (Gibco BRL, UK)) at 37° C. Then 500 μl HBSS at 37° C. was added per well, followed by 10 μl of the freshly prepared vesicle solution (prepared in Example 2) to yield a final concentration of 23.3 nmol/ml.
Alternatively, the medium was removed from the cells, and the cells were washed twice with HBSS. 500 μl HBSS/lipid solution at 37° C. was added to each well. The HBSS/lipid solution was prepared by adding 1 μl ethanolic lipid solution (prepared as described above) to 500 μHBSS under vigorous vortexing. The plates were then sealed with parafilm tape and shaken gently at room temperature for 30 min. After incubation, ultrasound was applied at an output energy of 0.5 Watt/cm^2 for 60 sec through the bottom of the plate to the cells. The ultrasound was mediated by an ultrasound gel (Aquasonic 100, Parker, N.J.) between transducer and plate. The ultrasound was applied with an ImaRx Sonoporator 100. Immediately after applying ultrasound one GFP chromosome per seeded cell (2×10^5-5×10^5) (prepared in Example 1) was added. The plate was then sealed again and shaken gently for 1 h at room temperature. After the incubation 1 ml medium (CHO—S—SFM 2 with 10% Fetal Calf Serum, 10000 μg/ml Penicillin and 10000 μg/ml Streptomycin Gibco BRL, Paisley, UK) was added to each well and the cells were incubated for 24 h at 37° C. The cells were then washed with medium and 1 ml medium was added and the cells were incubated at 37° for another 24 h. Detection of expressed genes was then assayed by microscopy or detection of the transferred chromosome by FISH analysis.
The negative control was performed in the same way, but with no chromosomes added to the cells.

Hep-G2 cells = test: as above; type: cell-based, human; details: of the cells remaining on the slide
Procedure: Hep-G2 cells were grown at 37° C., 5% CO2, in DMEM with 4500 mg/l Glucose, with Pyridoxine/HCL, 10% Fetal Calf Serum, 10000 μg/ml Streptomycin and 1000 μg/ml Penicillin. Between 2×10^5 and 5×10^5 cells were plated onto sterile glass slides in a 12 wells plate 24 hours before usage.
Cells were transfected with GFP chromosomes using the procedure of Example 6A except that the CHO—KI medium was replaced with Hep-G2 medium.

A9 cells = test: as above; type: cell-based, murine; details: of the cells remaining on the glass
Procedure: A9 cells were grown at 37° C., 5% CO2, in DMEM with 4500 mg/l Glucose, with Pyridoxine/HCL, 10% Fetal Calf Serum, 10000 μg/ml Streptomycin and 10000 μg/ml Penicillin (GIBCO BRL, Paisley, UK). Between 2×10^5 and 5×10^5 cells were plated onto sterile glass slides in a 12 well plate 24 h before usage.
Cells were transfected with GFP chromosomes using the procedure of Example 6A except that CHO-KI medium was replaced with A9 medium.

LM(tk−) cells [1] = test: Nocodazole cell synchronization, cell cycle kinetics by propidium iodide flow cytometry; type: cell-based, murine
Procedure: To determine the optimum blocking concentration of nocodazole, nocodazole concentrations were titrated against LM(tk−) cells to generate a dose response. Timing of the optimal blocking concentration (100 ng/ml) was then assessed over 0-1 6 hours using flow cytometry. To determine the cell cycle kinetics of LM(tk−) cell populations at different time points, cells were stained with propidium iodide (PI) at a concentration of […] for 1×10^6 cells and analyzed with a FACS Vantage SE (Becton Dickinson Immunocytometry Systems, San Jose, Calif.) equiped with an argon laser tuned to 488 nm at 200 mW. Whole intact cells were gated on forward scatter (FSC, representing cell size) versus side scatter (SSC, representing internal granularity) and PI emission was detected with a 630/22 filter. A list mode file was generated with a minimum of 20,000 whole intact cells analyzed. The proportion of cells in G0-G1, S and G2-M were documented for each time point. Optimum cell-cycle arrest at the G2/M boundary was achieved by incubating cells with 100 ng/ml nocodazole in serum containing DMEM medium for 6 hours. After 6 hours of nocodazole exposure at 100 ng/ml, approximately 20% of cells were in S phase and 50% of cells were at G2/M. Cell cycle kinetics were again monitored by flow cytometry upon release of the nocodazole block and at frequent intervals over a 16 hour period.

LM(tk−) cells [2] = test: ACes transfection at time points after release of nocodazole block, hygromycin selection and FISH; type: cell-based, murine; details: nocodazole synchronized colonies (20/47), LipofectAMINE PLUS or Superfect; asynchronous control colonies 4% (2/49)
Procedure: Cells were plated at 7.5×10^5 cells per well of a 6-well plate 24 hours prior to nocodazole treatment. The cells were incubated with nocodazole for 6 hours. After the 6 hour incubation, wells were hosed with medium to dislodge the suspension fraction of cells. Nocodazole containing medium was removed and the wells were washed with fresh medium. The wash medium was aspirated and fresh medium was replaced in the wells. To determine the optimum time point for transfection, different cell samples were transfected at different time points after release of the nocodazole block. The time points were 0, 2, 4, 6, 8, 12, and 16 hours after release of the nocodazole block. Following transfer, the cells were plated and transfectants identified using hygromycin selection. Highest colony formations were achieved when transfection occurred 2-4 hours post nocodazole block. At these time points, cell population distribution included approximately 10% of cells in G0/G1, 20% in S, and 70% in G2/M. Transfectants were analyzed using FISH to determine the quality of the transferred material. […]
Cells were synchronized by nocodazole treatment (100 ng/ml final concentration) for 6 hours prior to transfection. […] Twenty-four hours post-transfection the cells are counted (Coulter counter) and a small fraction are plated for a modified toxicity assay. […]

LM(tk−) cells [3] = test: Thymidine cell synchronization, cell cycle kinetics by flow cytometry; type: cell-based, murine; details: 16 hours incubation, dose range 1-20 mM tested
Procedure: To determine the optimum parameters for cell cycle synchronization, thymidine was administered to cell samples in a dose range of 1-20 mM. Samples were analyzed by flow cytometry to determine the cell cycle kinetics of LM(tk−) cell populations at frequent intervals over a 16 hour time period. Optimum synchronization of cells in G0/G1 was achieved by incubating LM(tk−) cells with 10 mM thymidine in serum containing DMEM medium for 16 hours. The thymidine block was released by washing the cells twice in serum-free medium and replacing the medium with complete medium containing 24 μM 2′-deoxycytidine 5′ mono-phosophate (dCMP; Sigma D-7750, St. Louis, Mo.). Cell cycle kinetics were again monitored by flow cytometry upon release of the thymidine block and at frequent intervals over a 16 hour period.

[4] = 2-4 hours post nocodazole block
[5] = after 6 hours of nocodazole exposure at 100 ng/ml

Question: For CCCCCCCCC=CCCCCCCCCC(CCCCCCCCC=CCCCCCCCC)c1cc[n+](C)cc1.[Cl-] (stereo not shown) [Saint-2, 1-methyl-4-(1-octadec-9-enyl-nonadec-10-enylenyl) pyridinium chloride], which “GFP positive cells, of original population” value (CHO-KI cells; after 48 hours) is on record?
Answer: The value was 3%.

Question: And the “remaining cells positive for green fluorescent protein expression” value (“remaining cells positive” below) (CHO-KI cells; after 48 hours, of the cells remaining on the slide)?
Answer: Its value is 10%.

Question: What about the “cells containing an intact artificial chromosome (FISH)” value (CHO-KI cells; after culturing for two weeks) of the same compound?
Answer: Its value is 1.4%.

Question: What about the “remaining cells positive” value (Hep-G2 cells) of the same compound?
Answer: The value was 80%.

Question: What about the “remaining cells positive” value (A9 cells) of the same compound?
Answer: Its value is 50%.

Question: For COC(=O)Nc1nc2ccc(C(=O)c3cccs3)cc2[nH]1 [nocodazole], which “cells in G0/G1” value (LM(tk−) cells [1]; [4]) is on record?
Answer: The value was “approximately 10%”.

Question: What about the “cells in G2/M” value (LM(tk−) cells [1]; [4]) of the same compound?
Answer: Its value is ~70%.

Question: And the “cells in S” value (LM(tk−) cells [1]; [4])?
Answer: Its value is ~20%.

Question: And the “optimal blocking concentration for cell-cycle arrest at the G2/M boundary” value (LM(tk−) cells [1]; 6 hours incubation, serum containing DMEM)?
Answer: The value was 100 ng/mL.

Question: And the “cells at G2/M” value (LM(tk−) cells [1]; [5])?
Answer: The value was ~50%.

Question: What about the “cells in S phase” value (LM(tk−) cells [1]; [5]) of the same compound?
Answer: Its value is “approximately 20%”.

Question: What about the “percentage of colonies where at least 50% of the cells had an intact ACes (FISH)” value (LM(tk−) cells [2]) of the same compound?
Answer: Its value is 43%.

Question: Which “concentration for optimum synchronization of cells in G0/G1” value (LM(tk−) cells [3]) does the source give for Cc1cn([C@H]2C[C@H](O)[C@@H](CO)O2)c(=O)[nH]c1=O [thymidine] here?
Answer: Its value is 10 mM.
